# Settings: buffer; pH 7.4; 200.0 µM
row,SMILES,solubility kinetic [µg/mL]
1,N#Cc1cnn2cc(CCN3CCOCC3)c(-c3ccc(F)cc3)nc12,> 52.7
2,O=C(Cn1c(NCCO)nc2ccccc21)NCC1CCCO1 (stereo not given),> 47.8
3,CN(C(=O)CSc1cc(Cl)ccc1Cl)C1CCS(=O)(=O)C1 (stereo not given),53.7
4,COc1ccc(OC)c2nc(-c3ccc4c(c3)OCO4)ccc12,< 0.7
5,O=C(COC(=O)CC1CCCC1)Nc1ccc(Cl)cn1,9.1
6,Cc1cc(C)cc(OCC(=O)Nc2cc(C)on2)c1,1.5
7,COc1ccc2c(c1)c(-c1csc(N)n1)c(C)n2C,27.7
8,Oc1ccc2ccccc2c1CN1CCN(C/C=C/c2ccccc2)CC1,10.1
9,CS(=O)(=O)N1CCc2cc(C(=O)Nc3cccc([N+](=O)[O-])c3)ccc21,< 0.3
10,COC(=O)c1c(C)[nH]c(C(=O)C(C)OC(=O)C2CC2)c1C (stereo not given),39.7
11,Cc1ccc(N2C(=O)SC(Cc3ccccc3)C2=O)cc1 (stereo not given),0.8
12,COc1ccc(CCNC(=O)c2noc(C)c2[N+](=O)[O-])cc1OC,> 50.3
13,Cc1cccc(NC(=O)c2ccco2)c1C(=O)O,34.8
14,O=C(c1ccco1)c1cn(CC(=O)N2CCCCCC2)c2ccccc12,1.4
15,Cc1ccc(NC(=O)C2CCCN(C(=O)Nc3ccc(F)cc3)C2)cc1 (stereo not given),13.4
16,Cc1nc2ccccc2c(=O)n1-c1cccc([N+](=O)[O-])c1,36.4
17,COC(=O)c1ccc(OC(=O)N2CCOCC2)cc1,33.6
18,O=C(c1ccc(F)cc1)N1CCC(C(=O)N2CCN(c3ncccn3)CC2)CC1,59.2
19,O=C(COc1ccc2cc(Br)ccc2c1)N1CCOCC1,> 52.5
20,C/C=C/C=C(/NC(=O)c1ccccc1)C(=O)Nc1ccccc1,2.3
21,COc1cc(/C=C/C(=O)OCC(=O)NC2CCCCCCC2)ccc1O,36.2
22,CC(Nc1ccccc1)c1cccnc1 (stereo not given),> 29.7
23,Cc1ccc(OCC(=O)Nc2cccc3ccccc23)c([N+](=O)[O-])n1,31.5
24,O=C(CN1C(=O)NC2(CCCCCCC2)C1=O)NCc1ccccc1,47.7

row,SMILES,solubility kinetic [µg/mL]
1,COC(=O)Cn1c(C(O)c2ccccc2)nc2ccccc21 (stereo not given),> 44.4
2,Cc1ccc(S(C)(=O)=NC(=O)c2cc(C)on2)cc1 (stereo not given),41.5
3,NS(=O)(=O)c1ccc(CCNC(=O)CN2CCCCCC2)cc1,> 50.9
4,CC(=O)Nc1ccc(C(=O)OCC(=O)N2CC3(C)CC2CC(C)(C)C3)cc1 (stereo not given),15.6
5,Nc1cc(=O)[nH]c(SCc2ccccc2Cl)n1,6.9
6,COC(=O)/N=C(/Cc1ccc(OC)cc1)c1ccc(OC)cc1,43.6
7,CC(C)c1csc2nc3n(c(=O)c12)CCCCC3,32.9
8,Nc1nc(SCC(=O)Nc2cccc(F)c2)n[nH]1,> 40.1
9,Cc1c(C(=O)OCC(=O)NC(=O)NC2CCCCC2)cccc1[N+](=O)[O-],2.3
10,Cc1ccc(C(=O)N2CCN(c3ccccn3)CC2)cc1[N+](=O)[O-],44.8
11,CN1CC(=O)N(CC(=O)NC2CCCCC2)C1=O,> 38
12,CCC(CC)C(=O)N1CC(=O)Nc2ccc(C)cc2C1c1ccccc1 (stereo not given),2.4
13,CCS(=O)(=O)N1CCC(C(=O)NCc2ccc(OC)cc2)CC1,> 51.1
14,COc1cccc(Cn2c(=O)c3[nH]cnc3n(-c3ccccc3C)c2=O)c1,> 54.4
15,OC1NC(=S)N(c2ccccc2)C1O (stereo not given),> 31.5
16,Cc1ccc(S(=O)(=O)N(C)CC(=O)Nc2cccnc2)cc1,41.5
17,O=C(CSc1ncccn1)NCc1ccc2c(c1)OCO2,> 45.5
18,O=C(Nc1ccccn1)Nc1ccccc1[N+](=O)[O-],2.9
19,O=C(/C=C/c1ccco1)Oc1cccc2cccnc12,27.1
20,O=C(Nc1ccc2c(c1)OCCO2)c1ccoc1,35.7
21,O=C(CCc1nnc(C2CCCCC2)o1)NCc1ccc(F)c(F)c1,> 52.4
22,O=C(CN1C(=O)C2CC=CCC2C1=O)NC1CCCCC1 (stereo not given),42.5
23,S=C1NCCNC(=S)NCCOCCOCCOCCN1,> 50.5
24,Cc1cccc(NC(=S)NC(=O)c2ccc(-c3ccccc3)cc2)n1,0.5

row,SMILES,solubility kinetic [µg/mL]
1,O=S(=O)(c1ccc(-c2ccccn2)s1)N1CCC2(CC1)OCCO2,1.5
2,COc1ccnc2c1c(=O)n(Cc1ccccc1Cl)c(=O)n2C,36
3,Cc1nc(Nc2ccccc2O)c2oc3ccccc3c2n1,< 0.2
4,Cc1ccsc1CNCCc1ccc(F)cc1,27.1
5,O=C(COC(=O)CCc1c[nH]c2ccccc12)NCc1ccc2c(c1)OCO2,43
6,COC(=O)c1cc(S(=O)(=O)N2CCCC(C)C2)cn1C (stereo not given),43.2
7,O=C1Cc2ccccc2C(=O)N1Cc1cccc(Cl)c1,12.2
8,O=C(NCc1ccc(F)cc1)c1cc(C(=O)C2CC2)c[nH]1,4.2
9,CC(=O)Nc1ccc(S(=O)(=O)NC2CCS(=O)(=O)C2)cc1Cl (stereo not given),23.8
10,CN(C)CCn1c(=S)[nH]c2ccc(Cl)cc2c1=O,> 42.6
11,O=C(Nc1ccccn1)c1cc(-c2cccc(Cl)c2)nc2ccccc12,< 0.3
12,CC(C)Nc1nc2nonc2nc1Nc1ccccc1,> 40.5
13,C=CCOC(=O)C1=C(C)NC(C)=C(C(=O)OCC=C)C1c1ccco1,4.5
14,Cc1cc(C(=O)O)ccc1NCc1cccnc1,36
15,COc1ccc(Cl)cc1NS(=O)(=O)N1CCOCC1,> 46
16,O=C(NC1CC1)C1CCN(c2ncccn2)CC1,> 36.9
17,CC1(C)Cn2c(nc(=O)c3c2NCN(CCc2ccccc2)C3)S1,> 51.4
18,Cc1cc(C)c2c(CN3CCC(C)CC3)cc(=O)oc2c1,4.3
19,COc1ccc(OC)c(/C=C/c2ccc3cccc(O)c3n2)c1,< 0.7
20,Clc1ncc(CN2CCN(c3ccccc3)CC2)s1,40.9
21,N#Cc1ccccc1NC(=O)CN1CCN(Cc2ccccc2)CC1,> 50.2
22,Cc1ccc(S(C)(=O)=O)cc1C(=O)NC(C)C1CC2CCC1C2 (stereo not given),47.8
23,CN(CCC#N)C(=O)CC1(Cc2ccccc2)CCOC(C)(C)C1 (stereo not given),> 49.3
24,COc1ccc(CCNC(=O)c2cc3ccccc3oc2=O)cc1,< 0.7

row,SMILES,solubility kinetic [µg/mL]
1,COc1ccc(C(=O)N2CCC(C(=O)Nc3ccc(C)cc3)CC2)cc1,> 52.9
2,O=C(NC(=O)C(F)(F)F)Nc1ccc(S(=O)(=O)Nc2nccs2)cc1,> 59.2
3,CCOc1cc2c(C#N)c(N3CCNCC3)nc(N)c2c(N)n1,1.3
4,O=C1CNC(=O)N1c1ccc(Cl)cc1,> 31.6
5,CCn1cc(S(=O)(=O)Nc2cccnc2)cn1,> 37.8
6,CSc1cccc(NC(=S)NC(=O)c2cccnc2)c1,5.1
7,CCc1ccc(N=C2NC(=O)CS2)cc1,32.3
8,N#Cc1ccc(COC(=O)CCc2c[nH]c3ccccc23)cc1,3
9,Cc1ccccc1NC(=O)Cn1cc(C(=O)C2CC2)c2ccccc21,0.7
10,CN(C(=S)NC(=O)c1ccc(F)cc1)C1CCCCC1,8.8
11,COc1cc(C(C)=O)ccc1OCC(=O)N1CCc2ccccc2C1,43.9
12,Cc1cc(C=NCCO)c(C)n1-c1cc(Cl)ccc1Cl,29.2
13,O=C(NC1CCN(C(=S)Nc2ccc(Cl)cc2)CC1)c1ccco1,> 54.6
14,CN(CC(=O)Nc1ccc(Cl)cc1)C(=O)CCc1ccccc1,5.2
15,O=C(Nc1cccc(O)c1)C1CC(c2ccc(Cl)cc2)=NO1 (stereo not given),2.3
16,COc1cccc(C=O)c1OC(=O)N1CCOCC1,> 39.8
17,O=C1CNC(c2ccccc2Cl)c2cc(Br)ccc2N1 (stereo not given),0.8
18,COc1ccc(NC(C)=O)c(C)c1,> 26.9
19,CN(CCO)C(=O)c1ccc(-c2nn(C)c(=O)c3ccccc23)cc1,> 50.6
20,O=C(N/N=C/c1ccc([N+](=O)[O-])o1)C1CCCC1,> 37.7
21,COC(=O)C1=Nc2ccccc2/C1=C\c1c(O)n(C)c(=O)n(C)c1=O,> 51.2
22,O=C(c1c(Cl)cccc1Cl)N1CCN(c2ncccn2)CC1,> 50.6
23,Cc1nn(C)c(Oc2ccccc2)c1CCNC(=O)CCl,> 46.2
24,Cc1ccc(NC(=O)CSc2ncc3ccccn23)cc1C,40.5

row,SMILES,solubility kinetic [µg/mL]
1,CCOC(=O)Cc1cnc(N)s1,27.6
2,Cc1cc(CSCc2ccc(Cl)cc2)no1,2.2
3,CC(C)C(=O)N1CCN(c2nc3ccc(Cl)cc3s2)CC1,> 48.6
4,CC(=O)c1ccc(N2CCN(C(=S)NCCCN(C)C)CC2)cc1,> 52.3
5,Cc1ccc(OCC(=O)Nc2ccc(CN3CCOCC3)cc2)cc1,27.8
6,Fc1ccc2[nH]c3c(NCc4ccccc4)ncnc3c2c1,3.4
7,O=C1CC2(CCN(C(=O)c3cccc(F)c3)CC2)Oc2ccccc21,> 50.9
8,COc1cccc(/C=C2\SC(=S)N(c3cccnc3)C2=O)c1OC,< 0.4
9,O=C(O)CN1C(=O)C(=O)N(Cc2ccccc2F)C1=O,> 42
10,Cn1c(CN2CCN(S(C)(=O)=O)CC2)nc2cc([N+](=O)[O-])ccc21,> 53
11,CCOc1ccc(S(=O)(=O)/N=C(/Nc2ccc(C(C)=O)cc2)c2ccccc2)cc1,18.1
12,CC1CCCCC1NCC(=O)Nc1ccccc1C(=O)Nc1ccccc1 (stereo not given),4
13,Cc1ccc(CNC(=O)COC(=O)c2cnc(C)cn2)cc1,> 44.9
14,CC12CN3CC(C)(CN(C1)C3c1ccc3c(c1)OCO3)C2O (stereo not given),> 45.4
15,Brc1ccccc1C1Nc2cccc3cccc(c23)N1,2.8
16,CCc1nnc(NC(=O)CCNC(=O)c2ccccc2Cl)s1,> 50.8
17,O=C(Nc1cccc(Br)c1)c1cc(=O)c2ccccc2o1,< 0.7
18,C=C(Br)Cn1cnc2ccccc21,> 35.6
19,Cc1ccccc1CC(=O)N1CCCc2ccccc21,36.5
20,Cc1c(C)n(Cc2ccccc2)c2ncnc(NCCCN(C)C)c12,> 50.6
21,CCOC(=O)C1=C(C)N(C)C(=S)NC1c1c(OCC)ccc2ccccc12 (stereo not given),< 0.4
22,COc1cc(C2(c3ccc(O)c(OC)c3)C(=O)N(C)c3ccc(C)cc32)ccc1O,51.4
23,CN1CCN(c2nc3c(c(=O)[nH]2)CCC3)CC1,> 35.1
24,O=[N+]([O-])c1ccccc1S(=O)(=O)NC1CCCCCCC1,20.1
